Where two headings read alike, the source gives them in different places.
How the values were obtained:
hERG ion channels = hERG ion channels (Homo sapiens (Human), UniProt Q12809); experiment: Inhibition activity test on hERG ion channels in HEK293 cells (cardiac safety, patch clamp)
Description: This experiment is used as a cardiac safety test of compound.
The reagents are purchased from Sigma (St. Louis, MO) except NaOH and KOH for acid-base titration. Final concentrations of tested solutions are prepared on the testing day and dissolved in extracellular fluid. […] All the test solutions and the control solutions contain 0.3% DMSO. Intracellular fluid (mM) contains: K Aspartate, 130; MgCl2, 5; EGTA 5; HEPES, 10; Tris-ATP 4; pH 7.2 (KOH titration).
Cells: all experiments is performed at room temperature. Each cell itself is taken as the corresponding control.
Compounds are all perfused using a perfusion system that utilizes the gravity. At least two cells are tested per concentration. After current stabilization (or 5 minutes), the change in current magnitude before and after the use of the compound is compared to calculate the blocking effect of the compound.
The method of operation is the same as that of the test compound.
Electrophysiology: Transfer the Cells to the perfusion tank and perfuse with extracellular fluid. The intracellular fluid (mM) contains: K Aspartate, 130; MgCl2, 5; EGTA 5; HEPES, 10; Tris-ATP 4; pH 7.2 (KOH titration). The intracellular fluid is stored in small quantities in portions in a −80° C. refrigerator, and melt on the day of the experiment. Electrodes are drawn with PC-10 (Narishige, Japan). Recording is performed with whole-cell diaphragm clamp. Noise is filtered with one-fifth of the sampling frequency.
This process is repeated every 20 seconds. The hERG tail current is the pure hERG current. The maximum tail current triggered by the second square wave is detected, and when the current is stabilized, the test compound is perfused. The strength of the block is calculated when the response is stabilized.

human NaV1.8 ion channel = human NaV1.8 ion channel (Homo sapiens (Human), UniProt Q9Y5Y9); experiment: Compound inhibition activity on human NaV1.8 ion channel in HEK293 cells (whole-cell patch clamp); type: cell-based; conditions: 100 nm concentration, HEK293 cells, resting protocol
human NaV1.8 ion channel, sequence (Q9Y5Y9 whole entry): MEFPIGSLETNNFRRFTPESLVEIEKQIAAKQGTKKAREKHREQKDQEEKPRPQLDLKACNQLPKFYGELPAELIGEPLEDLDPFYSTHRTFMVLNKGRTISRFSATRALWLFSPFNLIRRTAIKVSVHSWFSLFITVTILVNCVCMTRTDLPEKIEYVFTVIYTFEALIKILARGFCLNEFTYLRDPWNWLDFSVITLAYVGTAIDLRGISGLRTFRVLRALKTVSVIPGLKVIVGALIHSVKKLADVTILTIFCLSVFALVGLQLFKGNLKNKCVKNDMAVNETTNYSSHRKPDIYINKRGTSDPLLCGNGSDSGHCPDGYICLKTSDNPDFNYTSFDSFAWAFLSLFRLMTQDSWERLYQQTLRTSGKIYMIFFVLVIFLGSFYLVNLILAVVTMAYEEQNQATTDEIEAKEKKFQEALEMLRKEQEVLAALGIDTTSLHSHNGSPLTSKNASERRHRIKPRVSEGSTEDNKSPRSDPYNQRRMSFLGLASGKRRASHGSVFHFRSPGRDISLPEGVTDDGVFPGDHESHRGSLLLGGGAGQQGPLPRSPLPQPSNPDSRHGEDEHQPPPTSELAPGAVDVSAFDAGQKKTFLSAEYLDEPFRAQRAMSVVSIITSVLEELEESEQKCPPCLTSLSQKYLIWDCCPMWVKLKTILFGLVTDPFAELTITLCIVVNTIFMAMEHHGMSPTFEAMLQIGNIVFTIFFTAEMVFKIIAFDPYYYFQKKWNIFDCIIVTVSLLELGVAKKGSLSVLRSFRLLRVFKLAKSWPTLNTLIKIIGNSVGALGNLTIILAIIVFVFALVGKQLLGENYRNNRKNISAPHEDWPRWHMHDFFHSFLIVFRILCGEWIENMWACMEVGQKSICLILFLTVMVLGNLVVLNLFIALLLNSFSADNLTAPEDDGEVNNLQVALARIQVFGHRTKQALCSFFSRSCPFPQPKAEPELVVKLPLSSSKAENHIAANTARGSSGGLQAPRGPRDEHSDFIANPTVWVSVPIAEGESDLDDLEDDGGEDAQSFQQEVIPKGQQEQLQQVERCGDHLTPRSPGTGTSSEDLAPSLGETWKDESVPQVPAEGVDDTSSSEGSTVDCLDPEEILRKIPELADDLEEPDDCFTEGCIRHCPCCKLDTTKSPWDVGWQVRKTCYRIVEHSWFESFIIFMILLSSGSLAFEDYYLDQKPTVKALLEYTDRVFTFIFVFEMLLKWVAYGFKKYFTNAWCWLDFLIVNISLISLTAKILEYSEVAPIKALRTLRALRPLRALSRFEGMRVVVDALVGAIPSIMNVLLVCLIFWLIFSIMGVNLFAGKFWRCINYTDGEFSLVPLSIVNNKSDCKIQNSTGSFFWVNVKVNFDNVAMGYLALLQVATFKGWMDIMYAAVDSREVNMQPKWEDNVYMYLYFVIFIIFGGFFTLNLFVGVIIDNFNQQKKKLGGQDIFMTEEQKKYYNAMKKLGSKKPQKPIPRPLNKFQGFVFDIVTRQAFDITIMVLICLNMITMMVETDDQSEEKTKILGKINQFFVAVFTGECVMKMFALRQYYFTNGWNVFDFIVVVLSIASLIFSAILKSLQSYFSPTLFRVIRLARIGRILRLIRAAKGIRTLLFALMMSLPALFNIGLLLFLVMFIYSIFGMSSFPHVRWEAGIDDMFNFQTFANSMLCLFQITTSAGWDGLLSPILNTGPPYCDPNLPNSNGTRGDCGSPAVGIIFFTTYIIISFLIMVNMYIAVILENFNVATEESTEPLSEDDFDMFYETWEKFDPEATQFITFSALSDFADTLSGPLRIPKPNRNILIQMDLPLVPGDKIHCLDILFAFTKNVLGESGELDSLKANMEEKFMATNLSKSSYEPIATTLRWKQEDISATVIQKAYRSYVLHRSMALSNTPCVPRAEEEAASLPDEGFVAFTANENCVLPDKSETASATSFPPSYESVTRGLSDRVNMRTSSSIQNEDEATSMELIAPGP

NaV1.4 = NaV1.4 (Homo sapiens (Human), UniProt P35499); experiment: Selectivity test for Nav ion channel subtypes: NaV1.4 (HEK293, patch clamp); type: cell-based; conditions: 1 uM; HEK293 cells
Description: (§1) Test Case 3: Compound Selectivity Test for Nav Ion Channel Subtypes
(§2) The aim of this test is to investigate effect of compounds on human Na ion channel cells expressed in steady-state (NaV1.1, NaV1.3, NaV1.4, NaV1.5, NaV1.6, NaV1.7). After Na ion currents is stabilized, the effect can be obtained by comparing the magnitude of Na channel currents before and after the application of the compounds.
(§3) The test compound is stored at a concentration of 9 mM in dimethyl sulfoxide (DMSO), and on the day of testing, dissolve in extracellular solution, then prepare to a screening concentration of 1 uM.
(§4) All experiments are performed at room temperature. Each cell itself is taken as the corresponding control.
(§5) At least one cell is tested per concentration.
(§6) HEK293 cells steadily expressing NaV1.1-, NaV1.3-, NaV1.4-, NaV1.5-, NaV1.6-ion channels; CHO cells expressing steadily NaV1.7 ion channel.
(§7) The intracellular fluid (mM) is: Aspartic acid, 140; MgCl2, 2; EGTA 11; HEPES, 10; pH 7.2 (CsOH titration). […] Electrodes are drawn with PC-10 (Narishige, Japan). Recording is performed with whole-cell diaphragm clamp.
(§8) Cells are clamped at −80 mV and then depolarized to −10 mV with a sustained 10 ms square wave to obtain Na ion channel currents (see the FIGURE). This process is repeated every 5 seconds. […] The strength of the block is calculated after the response is stabilized.

NaV1.1 = NaV1.1 (Homo sapiens (Human), UniProt P35498); experiment: Selectivity test for Nav ion channel subtypes: NaV1.1 (HEK293, patch clamp); type: cell-based; conditions: 1 uM; HEK293 cells
Description: as §1, §2, §3, §4, §5, §6, §7, §8

NaV1.3 = NaV1.3 (Homo sapiens (Human), UniProt Q9NY46); experiment: Selectivity test for Nav ion channel subtypes: NaV1.3 (HEK293, patch clamp); type: cell-based; conditions: 1 uM; HEK293 cells
NaV1.3, sequence (Q9NY46 whole entry): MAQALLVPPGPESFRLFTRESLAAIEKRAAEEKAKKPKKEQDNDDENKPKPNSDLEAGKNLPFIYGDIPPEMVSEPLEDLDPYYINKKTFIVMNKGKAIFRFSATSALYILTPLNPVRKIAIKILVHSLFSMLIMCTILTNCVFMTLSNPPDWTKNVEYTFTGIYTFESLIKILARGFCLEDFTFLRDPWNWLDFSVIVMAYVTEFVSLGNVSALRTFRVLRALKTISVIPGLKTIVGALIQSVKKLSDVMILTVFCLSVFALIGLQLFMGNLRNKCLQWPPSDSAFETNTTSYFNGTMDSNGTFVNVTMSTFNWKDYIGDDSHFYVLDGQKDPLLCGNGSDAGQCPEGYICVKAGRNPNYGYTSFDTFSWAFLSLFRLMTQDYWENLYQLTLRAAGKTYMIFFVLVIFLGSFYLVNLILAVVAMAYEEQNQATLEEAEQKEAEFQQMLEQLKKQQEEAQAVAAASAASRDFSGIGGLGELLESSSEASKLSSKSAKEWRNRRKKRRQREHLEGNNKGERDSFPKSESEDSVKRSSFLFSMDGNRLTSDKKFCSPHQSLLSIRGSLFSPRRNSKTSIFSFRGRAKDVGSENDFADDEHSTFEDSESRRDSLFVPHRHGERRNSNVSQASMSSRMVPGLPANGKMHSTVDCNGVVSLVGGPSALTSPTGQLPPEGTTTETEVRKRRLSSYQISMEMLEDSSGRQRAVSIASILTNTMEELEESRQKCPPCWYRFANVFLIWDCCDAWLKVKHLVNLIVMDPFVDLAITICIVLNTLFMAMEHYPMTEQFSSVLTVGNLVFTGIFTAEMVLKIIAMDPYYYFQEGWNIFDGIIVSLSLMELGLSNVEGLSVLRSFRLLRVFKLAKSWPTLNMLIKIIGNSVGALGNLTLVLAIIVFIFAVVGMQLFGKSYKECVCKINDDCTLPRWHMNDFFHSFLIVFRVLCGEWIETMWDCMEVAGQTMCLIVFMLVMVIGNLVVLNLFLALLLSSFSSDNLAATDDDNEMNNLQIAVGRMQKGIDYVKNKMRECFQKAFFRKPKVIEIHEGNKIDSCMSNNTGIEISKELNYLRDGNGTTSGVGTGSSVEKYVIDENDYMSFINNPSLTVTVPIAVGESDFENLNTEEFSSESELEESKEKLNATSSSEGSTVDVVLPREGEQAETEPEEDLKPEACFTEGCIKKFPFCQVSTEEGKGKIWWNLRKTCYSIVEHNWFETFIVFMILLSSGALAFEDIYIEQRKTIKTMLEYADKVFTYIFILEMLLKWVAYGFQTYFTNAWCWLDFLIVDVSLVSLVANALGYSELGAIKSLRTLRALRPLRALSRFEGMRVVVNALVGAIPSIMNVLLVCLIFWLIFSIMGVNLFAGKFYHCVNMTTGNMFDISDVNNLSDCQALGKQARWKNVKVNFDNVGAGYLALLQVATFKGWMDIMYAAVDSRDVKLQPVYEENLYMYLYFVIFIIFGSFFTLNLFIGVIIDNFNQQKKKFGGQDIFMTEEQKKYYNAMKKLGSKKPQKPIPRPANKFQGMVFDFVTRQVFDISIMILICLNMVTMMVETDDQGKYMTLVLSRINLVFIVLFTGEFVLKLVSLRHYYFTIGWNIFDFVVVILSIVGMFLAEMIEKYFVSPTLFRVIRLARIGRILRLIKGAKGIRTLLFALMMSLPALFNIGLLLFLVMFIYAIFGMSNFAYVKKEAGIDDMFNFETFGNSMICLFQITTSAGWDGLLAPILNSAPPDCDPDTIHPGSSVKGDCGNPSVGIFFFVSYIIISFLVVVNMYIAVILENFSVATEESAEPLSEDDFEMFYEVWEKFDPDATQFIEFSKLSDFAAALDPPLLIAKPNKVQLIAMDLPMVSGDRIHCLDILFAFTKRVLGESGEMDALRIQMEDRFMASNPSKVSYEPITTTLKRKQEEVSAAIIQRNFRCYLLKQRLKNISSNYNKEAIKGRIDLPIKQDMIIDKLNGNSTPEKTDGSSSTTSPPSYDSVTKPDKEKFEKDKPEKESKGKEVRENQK
Description: as §1, §2, §3, §4, §5, §6, §7, §8

NaV1.5 = NaV1.5 (Homo sapiens (Human), UniProt Q14524); experiment: Selectivity test for Nav ion channel subtypes: NaV1.5 (HEK293, patch clamp); type: cell-based; conditions: 1 uM; HEK293 cells
Description: as §1, §2, §3, §4, §5, §6, §7, §8

[1] = In vivo pharmacokinetic testing of compounds in rats; conditions: rat, male SD rats, single oral dose 100 mg/kg, plasma, VX-150 dosed as prodrug, active form analysed; for AUC: read-out: AUC; for Cmax: read-out: Cmax
Description: Test Case 4: In Vivo Pharmacokinetic Testing of Compounds in Rats
All SD rats in the test are male and are purchased from Shanghai Sippe-Bk Lab Animal Co., Ltd. Each compound is administered orally (100 mg/kg, 3 rats per group) at single dose to SD rats for pharmacokinetic study. The solutions are prepared on the same day of administration, e.g., the tested compound is suspended in 5% DMSO+95% saline, get vortexed for 2 min, and sonicated for 5 min to prepare a drug delivery system. The animals are fasted for 10-14 hours before oral administration, and resumed food 4 hours after administration. After oral administration by gavage in SD rats, pharmacokinetic samples are collected from jugular vein at the following time points: 0, 15 min, 30 min, 1 h, 2 h, 4 h, 6 h, 8 h and 24 h. Three whole blood samples are collected at each time point in a volume of about 0.2 mL and anticoagulated using sodium heparin. Blood samples are placed on ice immediately after collection and plasma is separated by centrifugation within 1 h (centrifugation conditions: 6800 rpm, 6 min, 2-8° C.). The collected plasma is stored in a −80° C. refrigerator prior to analysis.
In pharmacokinetic tests in rat, the control compound VX-150 is a prodrug (WO2015089361, compound 9), after administration, analysis is performed to test its active form (WO2014120808, compound 10). The aforementioned in vitro pharmacological tests are performed using the active ingredient (WO2014120808, compound 10).

NaV1.6 = NaV1.6 (Homo sapiens (Human), UniProt Q9UQD0); experiment: Selectivity test for Nav ion channel subtypes: NaV1.6 (HEK293, patch clamp); type: cell-based; conditions: 1 uM; HEK293 cells
Description: as §1, §2, §3, §4, §5, §6, §7, §8

NaV1.7 = NaV1.7 (Homo sapiens (Human), UniProt Q15858); experiment: Selectivity test for Nav ion channel subtypes: NaV1.7 (CHO cells, patch clamp); type: cell-based; conditions: 1 uM
Description: as §1, §2, §3, §4, §5, §6, §7, §8

[2] = read-out: Inhibition ratio of Nav1.8 (Activity of inhibition)
[3] = read-out: Inhibition ratio of compounds against Nav1.8 (Activity of inhibition)

hERG ion channels, sequence (Q12809 whole entry): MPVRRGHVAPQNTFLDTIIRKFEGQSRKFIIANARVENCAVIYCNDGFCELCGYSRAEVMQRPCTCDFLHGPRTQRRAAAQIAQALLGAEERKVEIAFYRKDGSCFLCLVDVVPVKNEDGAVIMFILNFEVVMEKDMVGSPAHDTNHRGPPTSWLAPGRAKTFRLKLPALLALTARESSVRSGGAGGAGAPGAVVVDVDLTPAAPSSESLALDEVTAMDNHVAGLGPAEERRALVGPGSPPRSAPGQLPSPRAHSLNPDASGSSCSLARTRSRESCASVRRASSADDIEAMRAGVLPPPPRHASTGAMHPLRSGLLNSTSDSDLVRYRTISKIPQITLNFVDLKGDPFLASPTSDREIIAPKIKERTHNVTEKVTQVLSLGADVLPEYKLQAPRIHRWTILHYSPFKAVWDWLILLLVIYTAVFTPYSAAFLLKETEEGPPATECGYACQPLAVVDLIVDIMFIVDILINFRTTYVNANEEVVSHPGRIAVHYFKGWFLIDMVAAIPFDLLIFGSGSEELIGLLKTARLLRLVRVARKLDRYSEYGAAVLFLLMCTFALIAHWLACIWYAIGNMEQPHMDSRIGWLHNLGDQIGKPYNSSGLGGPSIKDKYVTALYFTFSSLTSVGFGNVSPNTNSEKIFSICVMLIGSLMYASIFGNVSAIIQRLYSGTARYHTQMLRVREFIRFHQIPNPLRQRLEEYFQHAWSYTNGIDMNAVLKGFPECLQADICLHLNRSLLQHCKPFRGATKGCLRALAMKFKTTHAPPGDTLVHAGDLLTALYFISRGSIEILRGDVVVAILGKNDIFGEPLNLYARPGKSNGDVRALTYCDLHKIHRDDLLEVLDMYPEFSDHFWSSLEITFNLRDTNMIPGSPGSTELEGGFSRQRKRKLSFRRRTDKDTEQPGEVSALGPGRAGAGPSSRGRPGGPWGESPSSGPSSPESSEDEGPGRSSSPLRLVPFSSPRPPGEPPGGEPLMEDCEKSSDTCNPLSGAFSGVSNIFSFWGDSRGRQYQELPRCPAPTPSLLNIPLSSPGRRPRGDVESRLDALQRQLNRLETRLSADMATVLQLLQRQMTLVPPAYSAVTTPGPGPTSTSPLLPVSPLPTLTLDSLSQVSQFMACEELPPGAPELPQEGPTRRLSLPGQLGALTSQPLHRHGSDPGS

Compound | IC50 (hERG ion channels; human, pH 7.4) [µM] | Inhibition ratio on Nav1.4 (NaV1.4) [%] | Inhibition ratio on Nav1.1 (NaV1.1) [%] | Inhibition ratio on Nav1.3 (NaV1.3) [%] | Inhibition ratio on Nav1.5 (NaV1.5) [%] | inhibition at 0.1 µM (human NaV1.8 ion channel; [3]) [%] | half-life [1] [h] | AUC [1] [ng·h/mL] | Cmax [1] [ng/mL] | Inhibition ratio on Nav1.6 (NaV1.6) [%] | Inhibition ratio on Nav1.7 (NaV1.7) [%] | other results
Cc1cc(F)ccc1Oc1ccc(C(F)(F)F)cc1C(=O)Nc1ccc(F)c(C(N)CC(N)=O)c1 (stereo not shown) [Example 1, N-(3-(1,3-diamino-3-oxopropyl)-4-fluorophenyl)-2-(4-fluoro-2-methylphenoxy)-5-(trifluoromethyl) benzamide] | – | – | – | – | – | – | – | – | – | – | – | IC50 (hERG ion channels; read-out: IC50 for hERG inhibited by compounds, HEK293 cells, hERG tail current): 3.2 µM
Cc1cc(F)ccc1Oc1ccc(C(F)(F)F)cc1C(=O)Nc1ccc(F)c(C(N)C(N)=O)c1 (stereo not shown) [Example 36] | 10.5 | – | – | – | – | – | – | – | – | – | – | inhibition at 0.1 µM (human NaV1.8 ion channel; [2]): > 80%
Cc1cc(F)ccc1Oc1ccc(C(F)(F)F)cc1C(=O)Nc1ccc(F)c(C(N)CCO)c1 (stereo not shown) [Example 38] | 3 | – | – | – | – | – | – | – | – | – | – | inhibition at 0.1 µM (human NaV1.8 ion channel; [2]): 50 to 80%
Cc1cc(F)ccc1Oc1cc(C2CC2)c(C(F)(F)F)cc1C(=O)Nc1ccnc(OC[C@H](O)CO)c1 [Example 104] | 3.8 | <1 | 1.5 | 4.3 | <1 | > 80 | 5.1 | 58000 | 5140 | 2.8 | 1.3 | –
Cc1cc(F)ccc1Oc1cc(C2CC2)c(C(F)(F)F)cc1C(=O)Nc1cnnc(OC[C@H](O)CO)c1 [Example 112] | – | – | – | – | – | 20 to 50 | 6.3 | 115000 | 8270 | – | – | –
Cc1cc(F)ccc1Oc1cc(C(F)(F)F)c(Cl)cc1C(=O)Nc1ccnc(OC[C@H](O)CO)c1 [Example 114, (R)-5-chloro-N-(2-(2,3-dihydroxypropoxy)pyridin-4-yl)-2-(4-fluoro-2-methylphenoxy)-4-(trifluoromethyl) benzamide] | – | 2.7 | 4.8 | 4.4 | 5.9 | > 80 | 11.7 | 154000 | 7640 | 8.3 | <1 | IC50 (hERG ion channels): 22.3 µM
Cc1cc(F)ccc1Oc1cc(C(F)(F)F)c(Cl)cc1C(=O)Nc1cnnc(OC[C@@H](O)CO)c1 [Example 115] | – | – | – | – | – | 50 to 80 | – | – | – | – | – | –
Cc1cc(F)ccc1Oc1cc(C(F)(F)F)c(Cl)cc1C(=O)Nc1cnnc(OC[C@H](O)CO)c1 [Example 116] | 15.6 | <1 | 1.2 | 3.7 | <1 | 50 to 80 | 8.7 | 42500 | 2570 | 2.6 | <1 | –
Cc1cc(F)ccc1Oc1cc(C(F)(F)F)c(Cl)cc1C(=O)Nc1ccc(F)c(OC[C@H](O)CNC(=O)CO)c1 [Example 117] | – | <1 | <1 | 1.2 | 5.0 | > 80 | 3 | 114000 | 9570 | <1 | <1 | IC50 (hERG ion channels): 6 µM
Cc1cc(F)ccc1Oc1cc(C(F)(F)F)c(Cl)cc1C(=O)Nc1ccc(F)c(OC[C@@H](O)CNC(=O)CO)c1 [Example 118] | – | – | – | – | – | 50 to 80 | – | – | – | – | – | –
Cc1cc(F)ccc1Oc1cc(C2CC2)c(C(F)(F)F)cc1C(=O)Nc1ccc(F)c(OC[C@H](O)CNC(=O)CO)c1 [Example 119] | 4.2 | 1.4 | <1 | <1 | 2.8 | > 80 | 1.9 | 44500 | 5190 | 5.1 | <1 | –
COc1cc(F)ccc1Oc1cc(C(F)(F)F)c(Cl)cc1C(=O)Nc1ccnc(OC[C@H](O)CO)c1 [Example 120] | – | – | – | – | – | > 80 | – | – | – | – | – | –
COc1cc(OC(F)(F)F)ccc1Oc1cc(C(F)(F)F)c(Cl)cc1C(=O)Nc1ccnc(OC[C@H](O)CO)c1 [Example 121] | – | – | – | – | – | > 80 | – | – | – | – | – | –
Cc1cc(F)ccc1Oc1ccc(C(F)(F)F)cc1C(=O)Nc1ccnc(OC[C@H](O)CO)c1 [Example 122] | – | – | – | – | – | 50 to 80 | – | – | – | – | – | –
N-(3-(1-amino-3-fluoropropyl)-4-fluorophenyl)-4-cyclopropyl-2-(4-fluoro-2-methyl phenoxy)-5-(trifluoromethyl) benzamide [Example 21] | – | – | – | – | – | – | – | – | – | – | – | Inhibition ratio of Nav1.8 (Activity of inhibition) (human NaV1.8 ion channel): B (80 > B >= 50)
